According to the NIST ThermoML archive (doi:10.1016/j.jct.2018.07.013):

What was measured:
[1] = xn = mol fraction of the nth substance listed; details: 298.15 K, 100 kPa, Liquid; for speed of sound: Frequency=3 MHz, Single path-length method; for mass density: Vibrating tube method
[2] = excess molar enthalpy (molar enthalpy of mixing); xn = mol fraction of the nth substance listed; details: 298.15 K, 100 kPa, Liquid, Power-compensation calorimetry
[3] = 298.15 K, 100 kPa, Liquid; for speed of sound: Frequency=3 MHz, Single path-length method; for mass density: Vibrating tube method

CCOC(=O)C(C)O (stereo not drawn) [DL-ethyl lactate] + CCCCO
Details | excess molar enthalpy, [2] [kcal/mol] | mass density, [1] [kg/m3] | speed of sound, [1] [m/s]
x1 = 0.048 | 0.0471 | – | –
x1 = 0.0502 | – | 819.65 | 1241.3
x1 = 0.0914 | – | 830.65 | 1242.1
x1 = 0.103 | 0.0841 | – | –
x1 = 0.1929 | – | 856.89 | 1244.7
x1 = 0.233 | 0.136 | – | –
x1 = 0.3041 | – | 884.31 | 1248.3
x1 = 0.314 | 0.149 | – | –
x1 = 0.4061 | – | 908.31 | 1252.3
x1 = 0.414 | 0.154 | – | –
x1 = 0.4991 | – | 929.27 | 1256
x1 = 0.527 | 0.146 | – | –
x1 = 0.6037 | – | 951.84 | 1260.8
x1 = 0.626 | 0.127 | – | –
x1 = 0.707 | – | 973.11 | 1265.9
x1 = 0.714 | 0.0992 | – | –
x1 = 0.7968 | – | 990.82 | 1270.1
x1 = 0.82 | 0.0588 | – | –
x1 = 0.8927 | – | 1008.98 | 1274.6
x1 = 0.91 | 0.0299 | – | –
x1 = 0.951 | 0.0129 | – | –
x1 = 0.9527 | – | 1019.97 | 1277.3
x1 = 1 | – | 1028.45 | 1279.3

CCOC(=O)C(C)O (stereo not drawn) [DL-ethyl lactate] + CO
Details | excess molar enthalpy, [2] [kcal/mol] | mass density, [1] [kg/m3] | speed of sound, [1] [m/s]
x1 = 0.0432 | – | 816.63 | 1125.5
x1 = 0.051 | -0.0088 | – | –
x1 = 0.0935 | – | 846.09 | 1149.1
x1 = 0.104 | -0.0166 | – | –
x1 = 0.1911 | – | 890.78 | 1187
x1 = 0.209 | -0.0299 | – | –
x1 = 0.2979 | – | 926.51 | 1215.4
x1 = 0.327 | -0.0361 | – | –
x1 = 0.3976 | – | 951.94 | 1234.5
x1 = 0.437 | -0.0378 | – | –
x1 = 0.5018 | – | 972.85 | 1250.5
x1 = 0.569 | -0.0356 | – | –
x1 = 0.5789 | – | 985.46 | 1259
x1 = 0.621 | -0.0313 | – | –
x1 = 0.695 | – | 1000.96 | 1270.3
x1 = 0.763 | -0.0199 | – | –
x1 = 0.8045 | – | 1012.66 | 1275.9
x1 = 0.83 | -0.0134 | – | –
x1 = 0.9018 | – | 1021.2 | 1278.2
x1 = 0.905 | -0.00672 | – | –
x1 = 0.958 | -0.00263 | – | –
x1 = 0.9622 | – | 1025.79 | 1279
x1 = 1 | – | 1028.45 | 1279.3

CCO [ethanol]
[3]
Details | mass density [kg/m3] | speed of sound [m/s]
– | 785.16 | 1143.2

COC(=O)C(C)O (stereo not drawn) [methyl 2-hydroxypropanoate] + CCO
Details | excess molar enthalpy, [2] [kcal/mol] | mass density, [1] [kg/m3] | speed of sound, [1] [m/s]
x1 = 0.0492 | – | 809.35 | 1158
x1 = 0.056 | 0.0277 | – | –
x1 = 0.0968 | – | 831.45 | 1172.3
x1 = 0.104 | 0.0497 | – | –
x1 = 0.185 | 0.0801 | – | –
x1 = 0.2099 | – | 879.28 | 1203.7
x1 = 0.225 | 0.0932 | – | –
x1 = 0.281 | 0.105 | – | –
x1 = 0.3161 | – | 918.72 | 1229.4
x1 = 0.3921 | – | 944.17 | 1245.2
x1 = 0.464 | 0.11 | – | –
x1 = 0.4987 | – | 976.29 | 1266.1
x1 = 0.543 | 0.102 | – | –
x1 = 0.5872 | – | 1000.2 | 1283.3
x1 = 0.666 | 0.0825 | – | –
x1 = 0.6963 | – | 1026.72 | 1300.8
x1 = 0.794 | 0.0569 | – | –
x1 = 0.8007 | – | 1049.53 | 1316.4
x1 = 0.8814 | – | 1065.65 | 1326.5
x1 = 0.903 | 0.0282 | – | –
x1 = 0.952 | 0.0151 | – | –
x1 = 0.9535 | – | 1079.11 | 1334.4
x1 = 1 | – | 1087.35 | 1339.3

CCCO [propan-1-ol] + CCOC(=O)C(C)O
[1], x2 = 0
Details | mass density [kg/m3] | speed of sound [m/s]
– | 799.66 | 1206

COC(=O)C(C)O (stereo not drawn) [methyl 2-hydroxypropanoate]
[3]
Details | mass density [kg/m3] | speed of sound [m/s]
– | 1087.35 | 1339.3

CCOC(=O)C(C)O (stereo not drawn) [DL-ethyl lactate] + CCO
Details | excess molar enthalpy, [2] [kcal/mol] | mass density, [1] [kg/m3] | speed of sound, [1] [m/s]
x1 = 0.0522 | – | 809.88 | 1158.1
x1 = 0.054 | 0.0177 | – | –
x1 = 0.0957 | – | 828.74 | 1169.7
x1 = 0.114 | 0.0337 | – | –
x1 = 0.1946 | – | 866.53 | 1192.8
x1 = 0.225 | 0.0502 | – | –
x1 = 0.2902 | – | 897.43 | 1211.3
x1 = 0.312 | 0.0554 | – | –
x1 = 0.4011 | – | 927.58 | 1229.3
x1 = 0.42 | 0.0574 | – | –
x1 = 0.4995 | – | 950.3 | 1240.8
x1 = 0.511 | 0.0538 | – | –
x1 = 0.6076 | – | 971.75 | 1252.8
x1 = 0.635 | 0.0457 | – | –
x1 = 0.6931 | – | 986.54 | 1261.4
x1 = 0.737 | 0.0349 | – | –
x1 = 0.7965 | – | 1002.43 | 1268.7
x1 = 0.829 | 0.0217 | – | –
x1 = 0.9047 | – | 1017.03 | 1275.2
x1 = 0.93 | 0.0097 | – | –
x1 = 0.9511 | – | 1022.75 | 1277.3
x1 = 0.96 | 0.00478 | – | –
x1 = 1 | – | 1028.45 | 1279.3

CO [methanol] + CCOC(=O)C(C)O
[1], x2 = 0
Details | mass density [kg/m3] | speed of sound [m/s]
– | 786.53 | 1104
